Earlier results, collected in patent US20150182479A1, “Method of delivering agmatine for medical treatment” (TOPAZ VENTURES, INC., priority 2013, published 2015).

Columns and labels:
[1] = system: mouse; details: FST; for effect on antidepressant like effect of fluoxetine or paroxetine: agonists ip, agmatine-raising drugs icv; for effect of prior administration on antidepressant like effect of paroxetine and fluoxetine: paroxetine 10 mg/kg ip, fluoxetine 20 mg/kg ip
[2] = system: mice; details: for effect on morphine analgesia: agmatine 10 mg/kg i.p. 30 min before morphine s.c.; for effect on oxycodone analgesia: agmatine 10 mg/kg i.p. 30 min before oxycodone s.c.
[3] = system: thermal nociception; details: for effect of antagonist on response-latency enhancement by WIN 55212-2: WIN 55212-2 2 mg/kg, SR 141716A 5 mg/kg i.p., idazoxan 2 and 5 mg/kg, yohimbine 5 mg/kg

c1ccc2oc(C3=NCCN3)cc2c1 [2-(2-benzofuranyl)-2-imidazoline]
effect on antidepressant like effect of fluoxetine or paroxetine [1]: potentiated

Cc1noc(NS(=O)(=O)c2cccc3c(N(C)C)cccc23)c1C [BMS 182874]
tail-flick latency, drug alone ([2]; 360-min observation period): did not produce any change
effect of pretreatment on analgesic effect produced by agmatine alone ([2]; tail-flick, mice): did not increase
effect on agmatine-induced potentiation of morphine and oxycodone analgesia ([2]; tail-flick, mice): not altered
effect on morphine analgesia ([2]; tail-flick, mice): potentiates
effect on oxycodone analgesia ([2]; tail-flick, mice): potentiates

N=C(N)NCCC[C@@H](N)C(=O)O [D-arginine]
effect of prior administration on antidepressant like effect of paroxetine and fluoxetine [1]: blocked

N=C(N)NCCC[C@H](N)C(=O)O [L-arginine]
effect on antidepressant like effect of fluoxetine or paroxetine [1]: potentiated

Cc1c(C(=O)NN2CCCCC2)nn(-c2ccc(Cl)cc2Cl)c1-c1ccc(Cl)cc1 [SR 141716A]
effect of antagonist on response-latency enhancement by WIN 55212-2 [3]: blocked

N=C(N)NN [aminoguanidine]
effect on antidepressant like effect of fluoxetine or paroxetine [1]: potentiated

NC(N)=NCCCCN=C(N)N [arcaine]
effect on antidepressant like effect of fluoxetine or paroxetine [1]: potentiated

Clc1cccc(Cl)c1N=C1NCCN1 [clonidine]
effect on antidepressant like effect of fluoxetine or paroxetine [1]: potentiated
effect on morphine analgesia ([2]; tail-flick, mice): potentiate
effect on oxycodone analgesia ([2]; tail-flick, mice): potentiate

CCC1(C2=NCCN2)Cc2ccccc2O1 (stereo not drawn) [efaroxan]
effect of prior administration on antidepressant like effect of paroxetine and fluoxetine [1]: blocked

c1ccc2c(c1)OCC(C1=NCCN1)O2 (stereo not drawn) [idazoxan]
effect of prior administration on antidepressant like effect of paroxetine and fluoxetine [1]: blocked
effect on BMS 182874-induced potentiation of oxycodone analgesia ([2]; tail-flick, mice): blocked
effect on agmatine-induced potentiation of morphine and oxycodone analgesia ([2]; tail-flick, mice): blocked
effect of antagonist on response-latency enhancement by combination of WIN 55212-2 and agmatine ([3]; WIN 55212-2 2 mg/kg and agmatine, yohimbine 5 mg/kg i.p.): blocked
effect of antagonist on response-latency enhancement by WIN 55212-2 [3]: attenuated

COc1nc(C)nc(Cl)c1N=C1NCCN1 [moxonidine]
effect on antidepressant like effect of fluoxetine or paroxetine [1]: potentiated

COC(=O)[C@@H]1[C@H]2C[C@H]3c4[nH]c5ccccc5c4CCN3C[C@@H]2CC[C@@H]1O [yohimbine]
effect on BMS 182874-induced potentiation of morphine analgesia ([2]; tail-flick, mice): not affected
effect on BMS 182874-induced potentiation of oxycodone analgesia ([2]; tail-flick, mice): not affected
effect on agmatine-induced potentiation of morphine and oxycodone analgesia ([2]; tail-flick, mice): blocked
effect of antagonist on response-latency enhancement by WIN 55212-2 [3]: not affected

(−)-cis 3-(2-hydroxy-4-(1,1-dimethylheptyl)phenyl)-trans-4-(3-hydroxypropyl) cyclohexanol [CP55,940]
hot-plate response latency, drug given alone ([3]; i.p., WIN 55212-2 or CP55,940 1, 2 or 3 mg/kg, agmatine 50 or 100 mg/kg): increased

difluoromethyl ornithine
effect on antidepressant like effect of fluoxetine or paroxetine [1]: potentiated
